# Where “and” joins values, the source holds several entries; their conditions need not be identical. Identical values can stand only once. Inconclusive results and toxic doses are left out.
# Tested on: P388 leukemia ip, CD2F1 mice, survival T/C
# Assay: NCI In Vivo Anticancer Drug Screen. Data for tumor model P388 Leukemia (intraperitoneal) in CD2F1 (CDF1) mice
# Settings: endpoint: median survival time, higher = longer survival
# How it was run: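 Mice carrying the transplanted tumor received test compound or vehicle. Survival was recorded in each group, and the value is the treated-group measurement divided by that of the vehicle-treated control group.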
# [1] = dose: 100.0 mg/kg/injection, schedule: Q01DX009 (ip), vehicle: saline with Tween-80
# [2] = dose: 200.0 mg/kg/injection, schedule: Q01DX009 (ip), vehicle: saline with Tween-80
smiles,measurement,setting,value
CSCCCNC(=O)c1csc(CCNC(=O)c2ccccc2)n1,T/C,[1],104 % of control
same,T/C,[2],109 % of control
same,T/C,"dose: 400.0 mg/kg/injection, schedule: Q01DX009 (ip), vehicle: saline with Tween-80",104 % of control
COc1ccc(CSC(=S)Nc2cccc(C(F)(F)F)c2)cc1,T/C,"dose: 50.0 mg/kg/injection, schedule: Q01DX009 (ip), vehicle: saline",97 % of control
same,T/C,"dose: 50.0 mg/kg/injection, schedule: Q01DX009 (ip), vehicle: suspension in saline",90 % of control
same,T/C,"dose: 100.0 mg/kg/injection, schedule: Q01DX009 (ip), vehicle: saline",101 % of control
same,T/C,"dose: 200.0 mg/kg/injection, schedule: Q01DX009 (ip), vehicle: saline",118 % of control
same,T/C,"dose: 200.0 mg/kg/injection, schedule: Q01DX009 (ip), vehicle: suspension in saline",99 % of control
COc1ccc(N2C(=O)CC(n3ccccc3=O)C2=O)cc1 (centres undefined),T/C,"dose: 100.0 mg/kg/injection, schedule: Q04DX002 (ip), vehicle: saline with Tween-80",100 % of control
same,T/C,"dose: 200.0 mg/kg/injection, schedule: Q04DX002 (ip), vehicle: saline with Tween-80",99 % of control
same,T/C,"dose: 400.0 mg/kg/injection, schedule: Q04DX002 (ip), vehicle: saline with Tween-80",101 % of control
CN(C)c1ccc2c(Nc3ccc(NS(C)(=O)=O)cc3)c3ccc(N(C)C)cc3nc2c1,T/C,"dose: 25.0 mg/kg/injection, schedule: Q01DX005 (ip), vehicle: Klucel (hydroxypropylcellulose) (HPC)",161 % of control
same,T/C,"dose: 50.0 mg/kg/injection, schedule: Q01DX005 (ip), vehicle: Klucel (hydroxypropylcellulose) (HPC)",153 % of control and 155 % of control
same,T/C,"dose: 100.0 mg/kg/injection, schedule: Q01DX005 (ip), vehicle: Klucel (hydroxypropylcellulose) (HPC)",172 % of control and 212 % of control
same,T/C,"dose: 200.0 mg/kg/injection, schedule: Q01DX005 (ip), vehicle: Klucel (hydroxypropylcellulose) (HPC)",173 % of control and 216 % of control
COC(C(=O)C(OC(C)=O)C(C)OC(C)=O)C1Cc2cc3cc(OC4CC(OC5CC(OC(C)=O)C(OC(C)=O)C(C)O5)C(OC(C)=O)C(C)O4)c(C)c(OC(C)=O)c3c(OC(C)=O)c2C(=O)C1OC1CC(OC2CC(OC(C)=O)C(OC3CC(C)(OC(C)=O)C(OC(C)=O)C(C)O3)C(C)O2)C(OC(C)=O)C(C)O1 (centres undefined),T/C,"dose: 0.13 mg/kg/injection, schedule: Q01DX009 (ip), vehicle: water",98 % of control
same,T/C,"dose: 0.25 mg/kg/injection, schedule: Q01DX009 (ip), vehicle: water",99 % of control
same,T/C,"dose: 0.5 mg/kg/injection, schedule: Q01DX009 (ip), vehicle: water",105 % of control
same,T/C,"dose: 1.0 mg/kg/injection, schedule: Q01DX009 (ip), vehicle: water",105 % of control
same,T/C,"dose: 2.0 mg/kg/injection, schedule: Q01DX009 (ip), vehicle: water",107 % of control
same,T/C,"dose: 4.0 mg/kg/injection, schedule: Q01DX009 (ip), vehicle: water",111 % of control
same,T/C,"dose: 8.0 mg/kg/injection, schedule: Q01DX009 (ip), vehicle: water",114 % of control
same,T/C,"dose: 11.5 mg/kg/injection, schedule: Q01DX009 (ip), vehicle: water",106 % of control
same,T/C,"dose: 23.0 mg/kg/injection, schedule: Q01DX009 (ip), vehicle: water",108 % of control
same,T/C,"dose: 46.0 mg/kg/injection, schedule: Q01DX009 (ip), vehicle: water",115 % of control
O=C(O)c1ccccc1N/N=C\c1cc(/C=N/Nc2ccccc2C(=O)O)nc2[nH]c(=O)ccc12,T/C,"dose: 100.0 mg/kg/injection, schedule: Q04DX002 (ip), vehicle: Klucel (hydroxypropylcellulose) (HPC)",102 % of control
same,T/C,"dose: 200.0 mg/kg/injection, schedule: Q04DX002 (ip), vehicle: Klucel (hydroxypropylcellulose) (HPC)",107 % of control
same,T/C,"dose: 400.0 mg/kg/injection, schedule: Q04DX002 (ip), vehicle: Klucel (hydroxypropylcellulose) (HPC)",105 % of control
O=C1NC(=O)C(=Cc2cc3c(cc2Br)OCO3)C(=O)N1,T/C,"dose: 25.0 mg/kg/injection, schedule: Q01DX009 (ip), vehicle: Klucel (hydroxypropylcellulose) (HPC)",101 % of control
same,T/C,"dose: 50.0 mg/kg/injection, schedule: Q01DX009 (ip), vehicle: Klucel (hydroxypropylcellulose) (HPC)",101 % of control
same,T/C,"dose: 50.0 mg/kg/injection, schedule: Q01DX009 (ip), vehicle: saline with Tween-80",114 % of control
same,T/C,"dose: 100.0 mg/kg/injection, schedule: Q01DX009 (ip), vehicle: Klucel (hydroxypropylcellulose) (HPC)",117 % of control
same,T/C,[1],110 % of control and 124 % of control
same,T/C,"dose: 166.0 mg/kg/injection, schedule: Q01DX009 (ip), vehicle: saline with Tween-80",117 % of control
same,T/C,"dose: 200.0 mg/kg/injection, schedule: Q01DX009 (ip), vehicle: Klucel (hydroxypropylcellulose) (HPC)",113 % of control
same,T/C,[2],96 % of control
O=C(NCCNCCO)c1cccc(Nc2cc(O)c(O)c3ccccc23)c1,T/C,"dose: 50.0 mg/kg/injection, schedule: Q01DX005 (ip), vehicle: saline with Tween-80",108 % of control
same,T/C,"dose: 100.0 mg/kg/injection, schedule: Q01DX005 (ip), vehicle: saline with Tween-80",100 % of control
same,T/C,"dose: 200.0 mg/kg/injection, schedule: Q01DX005 (ip), vehicle: saline with Tween-80",97 % of control
